Target: T1, His-tagged full-length RSK2 (RPS6KA3) (Homo sapiens, UniProt P51812)
T1 construct: His-tagged full-length RSK2 (RPS6KA3, Invitrogen PV3323); His; purchased Invitrogen PV3323
Test: RSK2 Omnia Assay for compound IC50 determination
Type: biochemical
Conditions: ATP 15 μM, n=2, read-out: Mean RSK2 Biochem IC50
Summary of the method: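 Initial-rate slopes from continuous kinetic reads were fitted to a four-parameter equation for IC50 (n=2). Ki was then derived by Cheng-Prusoff assuming ATP-competitive inhibition. Reactions contained 15 μM ATP (Km 16.3 μM), 5 μM Omnia ST Peptide 6, and […] in 50 mM HEPES pH 7.5, 10 mM MgCl2, 1 mM DTT, 1% DMSO. Compounds spanned 11 threefold steps, […] final.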

T1 sequence (P51812 whole entry): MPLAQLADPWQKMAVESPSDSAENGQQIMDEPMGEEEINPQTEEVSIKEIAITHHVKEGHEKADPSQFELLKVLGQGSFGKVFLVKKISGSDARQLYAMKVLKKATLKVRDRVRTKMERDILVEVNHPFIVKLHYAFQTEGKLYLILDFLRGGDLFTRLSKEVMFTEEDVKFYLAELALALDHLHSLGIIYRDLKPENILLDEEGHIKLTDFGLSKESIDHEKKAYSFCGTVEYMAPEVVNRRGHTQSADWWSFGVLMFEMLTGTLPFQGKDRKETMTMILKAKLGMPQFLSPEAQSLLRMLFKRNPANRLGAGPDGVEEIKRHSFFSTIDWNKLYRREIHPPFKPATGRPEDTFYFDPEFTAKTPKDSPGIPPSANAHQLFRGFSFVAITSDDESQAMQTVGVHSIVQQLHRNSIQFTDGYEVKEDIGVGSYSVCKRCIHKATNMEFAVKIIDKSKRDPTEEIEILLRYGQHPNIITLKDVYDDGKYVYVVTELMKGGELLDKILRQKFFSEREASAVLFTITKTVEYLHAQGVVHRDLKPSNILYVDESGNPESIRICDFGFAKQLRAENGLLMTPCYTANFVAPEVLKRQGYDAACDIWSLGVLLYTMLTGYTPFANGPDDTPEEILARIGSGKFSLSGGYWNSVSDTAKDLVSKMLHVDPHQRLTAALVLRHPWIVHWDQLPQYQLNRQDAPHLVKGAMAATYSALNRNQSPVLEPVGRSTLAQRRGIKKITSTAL

IC50 [nM] | SMILES
≤ 100 | C[C@@H]1C(=O)N(c2ccccc2)c2cnc(Nc3ccc4[nH]ncc4c3)nc2N1C1CCCC1 [Example 66, (7R)-8-cyclopentyl-2-(1H-indazol-5-ylamino)-7-methyl-5-phenyl-7,8-dihydropteridin-6(5H)-one]
≤ 100 | C[C@@H]1C(=O)N(c2ccsc2)c2cnc(Nc3ccc4[nH]ncc4c3)nc2N1C1CCCCC1 [Example 57, (7R)-8-cyclohexyl-2-(1H-indazol-5-ylamino)-7-methyl-5-(thiophen-3-yl)-7,8-dihydropteridin-6(5H)-one]
≤ 100 | C[C@@H]1C(=O)N(c2cccc(C#N)c2)c2cnc(Nc3ccc4[nH]ncc4c3)nc2N1C1CCCCC1 [Example 29, 3-[(7R)-8-cyclohexyl-2-(1H-indazol-5-ylamino)-7-methyl-6-oxo-7,8-dihydropteridin-5(6H)-yl]benzonitrile]
≤ 100 | C[C@@H]1C(=O)N(c2cccnc2)c2cnc(Nc3ccc4[nH]ncc4c3)nc2N1C1CCCCC1 [Example 23, (7R)-8-cyclohexyl-2-(1H-indazol-5-ylamino)-7-methyl-5-(pyridin-3-yl)-7,8-dihydropteridin-6(5H)-one]
≤ 100 | C[C@@H]1C(=O)N(c2ccc(F)c(F)c2)c2cnc(Nc3ccc4[nH]ncc4c3)nc2N1C1CCCCC1 [Example 49, (7R)-8-cyclohexyl-5-(3,4-difluorophenyl)-2-(1H-indazol-5-ylamino)-7-methyl-7,8-dihydropteridin-6(5H)-one]
≤ 100 | C[C@@H]1C(=O)N(c2ccc(C(F)(F)F)cc2)c2cnc(Nc3ccc4[nH]ncc4c3)nc2N1C1CCCCC1 [Example 35, (7R)-8-cyclohexyl-2-(1H-indazol-5-ylamino)-7-methyl-5-[4-(trifluoromethyl)phenyl]-7,8-dihydropteridin-6(5H)-one]
≤ 100 | C[C@@H]1C(=O)N(c2cccc(C#N)c2)c2cnc(Nc3cc(F)c4[nH]ncc4c3)nc2N1[C@H]1CC[C@@H](C)CC1 [compound 236, 3-[(7R)-2-[(7-fluoro-1H-indazol-5-yl)amino]-7-methyl-8-(cis-4-methylcyclohexyl)-6-oxo-7,8-dihydropteridin-5(6H)-yl]benzonitrile]
≤ 100 | COc1ccc(N2C(=O)[C@@H](C)N([C@H]3CC[C@H](C(F)(F)F)CC3)c3nc(Nc4cc(F)c5[nH]ncc5c4)ncc32)cc1OC [compound 258, (7R)-5-(3,4-dimethoxyphenyl)-2-[(7-fluoro-1H-indazol-5-yl)amino]-7-methyl-8-[trans-4-(trifluoromethyl)cyclohexyl]-7,8-dihydropteridin-6(5H)-one]
≤ 100 | C[C@@H]1C(=O)N(c2ccc(N3CCC(O)CC3)nc2)c2cnc(Nc3cc(F)c4[nH]ncc4c3)nc2N1C1CCCCC1 [compound 147, (7R)-8-cyclohexyl-2-[(7-fluoro-1H-indazol-5-yl)amino]-5-[6-(4-hydroxypiperidin-1-yl)pyridin-3-yl]-7-methyl-7,8-dihydropteridin-6(5H)-one]
≤ 100 | COc1ccc(N2C(=O)[C@@H](C)N([C@H]3CC[C@H](OC)CC3)c3nc(Nc4ccc5[nH]c(=O)oc5c4)ncc32)cc1C#N [compound 235, 2-methoxy-5-[(7R)-8-(trans-4-methoxycyclohexyl)-7-methyl-6-oxo-2-[(2-oxo-2,3-dihydro-1,3-benzoxazol-6-yl)amino]-7,8-dihydropteridin-5(6H)-yl]benzonitrile]
≤ 100 | C[C@@H]1C(=O)N(c2ccc3cccnc3c2)c2cnc(Nc3cc(F)c4[nH]ncc4c3)nc2N1C1CCCCC1 [compound 133, (7R)-8-cyclohexyl-2-[(7-fluoro-1H-indazol-5-yl)amino]-7-methyl-5-(quinolin-7-yl)-7,8-dihydropteridin-6(5H)-one]
≤ 100 | COc1ccc(N2C(=O)[C@@H](C)N(C3CCCCC3)c3nc(Nc4ccc5[nH]ncc5c4)ncc32)cc1 [Example 26, (7R)-8-cyclohexyl-2-(1H-indazol-5-ylamino)-5-(4-methoxyphenyl)-7-methyl-7,8-dihydropteridin-6(5H)-one]
≤ 100 | CNC(=O)c1cccc(N2C(=O)[C@@H](C)N(C3CCCCC3)c3nc(Nc4ccc5[nH]ncc5c4)ncc32)c1 [Example 46, 3-[(7R)-8-cyclohexyl-2-(1H-indazol-5-ylamino)-7-methyl-6-oxo-7,8-dihydropteridin-5(6H)-yl]-N-methylbenzamide]
≤ 100 | COc1cc(N2C(=O)[C@@H](C)N(C3CCCCC3)c3nc(Nc4ccc5[nH]ncc5c4)ncc32)ccc1C [compound 125, (7R)-8-cyclohexyl-2-(1H-indazol-5-ylamino)-5-(3-methoxy-4-methylphenyl)-7-methyl-7,8-dihydropteridin-6(5H)-one]
≤ 100 | C[C@@H]1C(=O)N(c2cccc(C#N)c2)c2cnc(Nc3ccc4[nH]ncc4c3)nc2N1C1CCCC1 [Example 69, 3-[(7R)-8-cyclopentyl-2-(1H-indazol-5-ylamino)-7-methyl-6-oxo-7,8-dihydropteridin-5(6H)-yl]benzonitrile]
≤ 100 | C[C@@H]1C(=O)N(c2ccc(Cl)cc2)c2cnc(Nc3ccc4[nH]ncc4c3)nc2N1C1CCCCC1 [Example 21, (7R)-5-(4-chlorophenyl)-8-cyclohexyl-2-(1H-indazol-5-ylamino)-7-methyl-7,8-dihydropteridin-6(5H)-one]
≤ 100 | C[C@@H]1C(=O)N(c2ccc[n+]([O-])c2)c2cnc(Nc3cc(F)c4[nH]ncc4c3)nc2N1C1CCC(C)(C)CC1 [compound 304, (7R)-8-(4,4-dimethylcyclohexyl)-2-[(7-fluoro-1H-indazol-5-yl)amino]-7-methyl-5-(1-oxidopyridin-3-yl)-7,8-dihydropteridin-6(5H)-one]
≤ 100 | C[C@@H]1C(=O)N(c2ccccc2)c2cnc(Nc3ccc4[nH]ncc4c3)nc2N1CC1CCCCC1 [Example 72, (7R)-8-(cyclohexylmethyl)-2-(1H-indazol-5-ylamino)-7-methyl-5-phenyl-7,8-dihydropteridin-6(5H)-one]
≤ 100 | CC[C@@H]1C(=O)N(c2ccc(N(C)C)nc2)c2cnc(Nc3cc(F)c4[nH]ncc4c3)nc2N1C1CCCCC1 [compound 293, (7R)-8-cyclohexyl-5-[6-(dimethylamino)pyridin-3-yl]-7-ethyl-2-[(7-fluoro-1H-indazol-5-yl)amino]-7,8-dihydropteridin-6(5H)-one]
≤ 100 | CC[C@@H]1C(=O)N(c2ccc(OC)c(OC)c2)c2cnc(Nc3cc(F)c4[nH]ncc4c3)nc2N1C1CCCCC1 [compound 289, (7R)-8-cyclohexyl-5-(3,4-dimethoxyphenyl)-7-ethyl-2-[(7-fluoro-1H-indazol-5-yl)amino]-7,8-dihydropteridin-6(5H)-one]
≤ 100 | C[C@@H]1C(=O)N(c2cccc(C#N)c2)c2cnc(Nc3ccc(CO)cc3)nc2N1C1CCCCC1 [compound 171]
≤ 100 | C[C@@H]1C(=O)N(c2cccc(C#N)c2)c2cnc(Nc3cc(F)c(O)c(F)c3)nc2N1C1CCOCC1 [compound 194, 3-[(7R)-2-[(3,5-difluoro-4-hydroxyphenyl)amino]-7-methyl-6-oxo-8-(tetrahydro-2H-pyran-4-yl)-7,8-dihydropteridin-5(6H)-yl]benzonitrile]

Target: T2, His-tagged full length RSK1 (RPS6KA1) (Homo sapiens, UniProt Q15418)
T2 construct: His-tagged full length RSK1 (RPS6KA1, Millipore 14-509); His; purchased Millipore 14-509
T2 sequence (Q15418 whole entry): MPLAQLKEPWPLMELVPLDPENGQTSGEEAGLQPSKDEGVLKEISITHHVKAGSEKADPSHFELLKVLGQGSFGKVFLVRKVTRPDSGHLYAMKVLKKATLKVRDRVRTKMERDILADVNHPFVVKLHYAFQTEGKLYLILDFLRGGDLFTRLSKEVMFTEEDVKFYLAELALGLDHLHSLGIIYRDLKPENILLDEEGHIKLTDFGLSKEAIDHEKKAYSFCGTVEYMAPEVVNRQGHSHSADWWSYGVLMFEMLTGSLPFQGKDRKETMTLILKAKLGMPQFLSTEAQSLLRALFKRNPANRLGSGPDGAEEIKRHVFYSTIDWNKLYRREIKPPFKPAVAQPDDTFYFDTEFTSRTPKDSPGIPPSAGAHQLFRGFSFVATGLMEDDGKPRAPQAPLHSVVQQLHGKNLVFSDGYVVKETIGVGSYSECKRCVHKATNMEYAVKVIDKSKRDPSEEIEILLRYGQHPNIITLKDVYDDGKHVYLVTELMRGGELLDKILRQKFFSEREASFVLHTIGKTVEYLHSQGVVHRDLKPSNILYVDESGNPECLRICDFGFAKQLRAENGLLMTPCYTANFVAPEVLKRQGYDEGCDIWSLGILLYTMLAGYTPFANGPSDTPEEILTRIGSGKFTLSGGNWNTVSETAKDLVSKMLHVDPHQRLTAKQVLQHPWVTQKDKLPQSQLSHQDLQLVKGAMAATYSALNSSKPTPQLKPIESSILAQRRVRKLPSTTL
Test: RSK1 Omnia Assay for compound IC50 determination
Type: biochemical
Conditions: ATP 15 μM, n=2, read-out: Mean RSK1 Biochem IC50
Procedure: RSK1 & RSK2 Omnia Assay Protocol for Compound IC50 Determination
The Omnia Assay (Invitrogen) has been optimized for His-tagged full length RSK1 (RPS6KA1, Millipore 14-509) and for His-tagged full-length RSK2 (RPS6KA3, Invitrogen PV3323). In this assay system, Omnia ST Peptide 6 (Invitrogen KNZ1061) functions as a substrate for RSK1 or RSK2. Phosphorylation of this SOX-containing peptide results in an increase in fluorescence at 485 nm upon excitation at 360 nm.
Assays are carried out in 384-well OptiPlates (Perkin Elmer 6007290) in a total volume of 20 μL containing RSK1 ([…]) or RSK2 ([…]), Omnia ST Peptide 6 (5 μM), ATP (15 μM, Km=16.3 μM), and test compound (variable) in RSK assay buffer (50 mM HEPES, pH 7.5, 10 mM MgCl2, 0.01% Tween-20, 1% glycerol, 1 mM DTT, 1 mM EGTA, 0.01% BSA) with 1% DMSO.
IC50s for test compounds are typically determined using an 11-point three-fold serial dilution with a final assay concentration ranging either from 170 μM to […] or from 17 μM to […]. All compound concentrations are assayed in duplicate. Initial compound dilutions are prepared at 100× concentration in 100% DMSO from a 10 mM stock solution. Compounds are further diluted 1:25 in assay buffer resulting in a 4× concentrated solution.
To run the assay 5 μL of the above 4× concentrated compound solution (or 4% DMSO for positive controls) is added to the assay plate followed by 5 μL of a solution containing peptide (20 μM) and ATP (60 μM) in assay buffer. The reaction is initiated by the addition of 10 μL of RSK1 ([…]) or RSK2 ([…]) in assay buffer, or assay buffer alone for negative controls. The increase in fluorescence due to peptide phosphorylation is monitored continuously as a function of time using a Spectramax M5 plate reader (Molecular Devices) equipped with SoftMax Pro software.
The slopes from the linear portion of progress curves are used to determine IC50 values by non-linear curve-fitting to a four-parameter equation using GraphPad Prism (GraphPad Software, Inc.) or XLFit (IDBS). IC50's are determined in duplicate (n=2) and Ki values are calculated from IC50 values using the Cheng-Prusoff equation assuming a competitive mode of inhibition.

IC50 [nM] | SMILES
≤ 100 | C[C@@H]1C(=O)N(c2ccccc2)c2cnc(Nc3ccc4[nH]ncc4c3)nc2N1C1CCCC1 [Example 66, (7R)-8-cyclopentyl-2-(1H-indazol-5-ylamino)-7-methyl-5-phenyl-7,8-dihydropteridin-6(5H)-one]
≤ 100 | C[C@@H]1C(=O)N(c2ccsc2)c2cnc(Nc3ccc4[nH]ncc4c3)nc2N1C1CCCCC1 [Example 57, (7R)-8-cyclohexyl-2-(1H-indazol-5-ylamino)-7-methyl-5-(thiophen-3-yl)-7,8-dihydropteridin-6(5H)-one]
≤ 100 | C[C@@H]1C(=O)N(c2cccc(C#N)c2)c2cnc(Nc3ccc4[nH]ncc4c3)nc2N1C1CCCCC1 [Example 29, 3-[(7R)-8-cyclohexyl-2-(1H-indazol-5-ylamino)-7-methyl-6-oxo-7,8-dihydropteridin-5(6H)-yl]benzonitrile]
≤ 100 | C[C@@H]1C(=O)N(c2cccnc2)c2cnc(Nc3ccc4[nH]ncc4c3)nc2N1C1CCCCC1 [Example 23, (7R)-8-cyclohexyl-2-(1H-indazol-5-ylamino)-7-methyl-5-(pyridin-3-yl)-7,8-dihydropteridin-6(5H)-one]

System: RSK1-4
Test: not given
Conditions: G. P. Sapkota et al., Biochem J., 401, 29-38 (2007); cited from earlier work

SMILES | inhibitor of RSK1-4
CC(C)CCN1c2nc(Nc3cc(F)c(O)c(F)c3)ncc2N(C)C(=O)C1C (stereo not drawn) [BI-D1870] | potent inhibitor

Source: patent publication US9351974B2, “Substituted pteridinones for the treatment of cancer” (OSI Pharmaceuticals, LLC, priority 2011, dated 2016)
